The source of these data is ChEMBL document CHEMBL5649166, “RIP3 induces apoptosis independent of pronecrotic kinase activity” (Mol Cell, 2014).

Data set [1] has as its system L929. Nature of the data set: Inhibition of TNF-alpha induced necroptosis in mouse L929 cells assessed as increase in cell viability at 30 uM incubated for 18 hrs in presence of zVAD by Cell Titer-Glo luminescent cell viability assay. The data set is classed as functional, cell-based.
The test system of data set [2] is SVEC4-10. The data set can be described thus: Inhibition of TNF-induced necroptosis in mouse SVEC4-10 cells assessed as increase in cell viability incubated for 18 hrs in presence of zVAD by Cell Titer-Glo luminescent cell viability assay. The data set is classed as functional, cell-based. For orientation: ATP-based viability assays read luminescence as a measure of living cells.

Data set [3] deals with L929. Nature of the data set: Inhibition of TLR-3 induced necroptosis in mouse L929 cells assessed as increase in cell viability at 30 uM incubated for 18 hrs in presence of zVAD and poly(I:C) by Cell Titer-Glo luminescent cell viability assay. The class given is functional, cell-based.
Data set [4] has as its system SVEC4-10. The data set can be described thus: Inhibition of DAI-induced necroptosis in MCMV M45mutRHIM infected mouse SVEC4-10 cells assessed as increase in cell viability incubated for 18 hrs by Cell Titer-Glo luminescent cell viability assay. The class given is functional, cell-based.
Data set [5] relates to 3T3SA. Nature of the data set: Induction of apoptosis in mouse 3T3SA cells assessed as cell death by measuring percent of PI positive cells incubated for 3 hrs in presence of TNF by PI staining based flow cytometric analysis (reference value: 10.7%). The data set is classed as toxicity. A general note: Flow cytometry measures light scatter and fluorescence of single cells or particles in a stream.

Data set [6] has as its system 3T3SA. The data set can be described thus: Induction of apoptosis in mouse 3T3SA cells assessed as cell death by measuring percent of PI positive cells incubated for 8 hrs in presence of TNF by PI staining based flow cytometric analysis (reference value: 11.4%). The class given is toxicity.
For data set [7], the system named is L929. Nature of the data set: Inhibition of TNF-alpha induced necroptosis in mouse L929 cells assessed as increase in cell viability at 10 uM incubated for 18 hrs in presence of zVAD by Cell Titer-Glo luminescent cell viability assay. The data set is classed as functional, cell-based.
Data set [8] deals with L929. The data set can be described thus: Inhibition of TLR-3 induced necroptosis in mouse L929 cells assessed as increase in cell viability at 10 uM incubated for 18 hrs in presence of zVAD and poly(I:C) by Cell Titer-Glo luminescent cell viability assay. The data set is classed as functional, cell-based.

The source made the active and inactive calls. No cut-off for these calls is given here.

As to `CN1C(=O)C(Cc2c[nH]c3ccccc23)NC1=S` (stereo not given), the inhibition result in data set [1] and in data set [2] was “Active” each time. The inhibition entry in data set [3] and in data set [4] was “inactive” in each case.

For `C[C@@H]1CC([C@H](O)CC2CC(=O)NC(=O)C2)C(=O)[C@@H](C)C1` (stereo not given in full), the values for the Activity in data set [5] and in data set [6] were 22% and 60%, respectively.

On to `CC(C)(C)C(=O)N1N=CC[C@H]1c1ccccc1`, for which the inhibition result in data set [7] and in data set [2] was “Active” in each case. In addition, the inhibition entry in data set [8] and in data set [4] was “inactive” throughout.
